Assay results taken from PMC9436859, “Chromatographic separation of glycated peptide isomers derived from glucose and fructose” (Analytical and Bioanalytical Chemistry, 2022).

What was measured:
Format in all cases: physicochemical
[1] = RP-HPLC retention at neutral pH, Aqua C18, sodium phosphate; conditions: Aqua C18 (3 µm, 125 Å), sodium phosphate 10 mmol/L pH 7.2, 0.6% acetonitrile/min, 60 °C, UV 214 nm, mixture of family #2, order from individual injections
Experimental: (§1) Separations used either a Synergi Fusion-RP C18 column (ID: 2 mm, length: 150 mm, particle size: 4 µm, pore size: 80 Å, Phenomenex) or Aqua C18 column (ID: 2 mm, length: 150 mm, particle size: 3 µm, pore size: 125 Å, Phenomenex) using a System Gold HPLC equipped with a 507e autosampler (100 µL injection volume), a 125NM binary gradient pump, and a 166 UV/VIS detector. Eluents were water (eluent B1) and aqueous acetonitrile (60% v/v, eluent B2 or 40% v/v, eluent B3) containing sodium or potassium phosphate buffer or ammonium acetate (10 mmol/L). Eluents were prepared from aqueous stock solutions (0.1 mol/L) adjusted to pH 7.2, in case of ammonium acetate with ammonia. Solvents were filtered (pore size, 0.2 µm; Pall Corp., Ann Arbor, MI) and sonicated for 15 min prior to use. Peptides were eluted using a linear acetonitrile gradient from either 5 to 95% eluent B2 in 30 min, 5 to 70% eluent B2 in 65 min, or 7.5 to 95% eluent B3 in 58 min. Unless otherwise indicated, separations were performed at 60 °C with a flow rate of 0.2 mL/min and the absorbance was recorded at 214 nm. Fractions were analyzed by matrix-assisted laser desorption/ionization time-of-flight MS (MALDI-TOF/TOF–MS) on a 5800 proteomic analyzer (ABSciex GmbH, Darmstadt, Germany) operating in reflector mode and using a solution of α-cyano-4-hydroxycinnamic acid (4 g/L) in eluent A2 as matrix.

[2] = RP-HPLC retention at neutral pH, Synergi Fusion RP, potassium phosphate; conditions: potassium phosphate 10 mmol/L pH 7.2, 60 °C, UV 214 nm; for retention time (tr): Synergi Fusion RP, family #2 mixture (Fig. S10)
Experimental: as §1

[3] = IP-RP-HPLC retention, Jupiter C18, 0.1% TFA; conditions: 60 °C, UV 214 nm
Experimental: Separations used a Jupiter C18 column (ID: 2 mm, length: 150 mm, particle size: 5 µm, pore size: 300 Å, Phenomenex) and a System Gold HPLC equipped with a 508 autosampler (100 µL injection volume), a 125NM binary gradient pump, and a UV detector (Knauer GmbH, Berlin, Germany). Eluents were 0.1% (v/v) TFA (eluent A1) and 60% (v/v) aqueous acetonitrile containing 0.1% (v/v) TFA (eluent A2). Peptides were eluted using a linear acetonitrile gradient from either 5 to 95% eluent A2 in 30 min or 5 to 60% eluent A2 in 55 min. Separations were performed at a column temperature of 60 °C with a flow rate of 0.2 mL/min, and the absorbance was recorded at 214 nm. Separations were performed twice with deviations of the retention times of ~ 0.2 min for the shallow gradient.

[4] = nanoUPLC-ESI-Orbitrap-MS retention, BEH C18, 0.1% formic acid; conditions: nanoRP-UPLC, 30 °C, XIC; for retention time (tr): Acquity BEH C18 (1.7 µm), 87-min gradient 3 to 40% acetonitrile, glycated peptide mixture, 500 fmol each, glucated peptide or glucosyl-lysine species of the fructated peptide; for retention time (tr), mannosyl-lysine species: Acquity BEH C18, 87-min gradient 3 to 40% acetonitrile, second peak of the fructated peptide (mannosyl-lysine)
Experimental: Peptides were analyzed on a nanoAcquity UPLC (Waters GmbH) coupled on-line to an LTQ Orbitrap XL ETD mass spectrometer equipped with a nano-ESI source (Thermo Fisher Scientific GmbH, Bremen, Germany) operated in positive ion mode. Eluents were aqueous formic acid (0.1% v/v; eluent D1) and acetonitrile-containing formic acid (0.1% v/v; eluent D2). Peptides (10 µL, 500 fmol each) were trapped on a nanoAcquity Symmetry C18 column (ID: 180 μm, length: 2 cm, particle diameter: 5 μm) at a flow rate of 5 μL/min (3% eluent D2). Separation was achieved on a BEH 130 column (C18 phase, ID: 75 μm, length: 10 cm, particle diameter: 1.7 μm) using a flow rate of 0.4 μL/min and a column temperature of 30 °C. Peptides were eluted with two linear gradients from 3 to 40% eluent D2 in 87 min and then to 85% eluent D2 in 5 min. The transfer capillary temperature was set to 200 °C, and an ion spray voltage of 1.4 kV was applied to a PicoTip™ on-line nano-ESI emitter (New Objective, Berlin, Germany). Mass spectra (m/z range 400 to 2000) were recorded in the Orbitrap mass analyzer at a resolution of 60,000 at m/z 400. Tandem mass spectra were acquired in CID mode (isolation width 2 m/z units, normalized collision energy 35%, activation time 30 ms, default charge state 2, intensity threshold of 500 counts) using data-dependent acquisition (DDA) for the six most intense signals with a dynamic exclusion window of 60 s.

[5] = RP-HPLC retention at neutral pH, Synergi Fusion RP, sodium phosphate; conditions: linear 65-min gradient 3 to 42% acetonitrile, sodium phosphate 10 mmol/L pH 7.2, 60 °C, UV 214 nm, family mixture
Experimental: as §1

[6] = Jupiter C18, 0.1% TFA, 0.6% acetonitrile/min, family injected as a mixture (Fig. S3F)

ADLAKHeyYIC*ENQDSISSK [2C, fructated (Heyns) tryptic peptide HSA A258-K274, K262]
retention time (tr) [1]: 36.5 min | retention time (tr) [2]: 31.4 min

AVGDKHeyLPEC*EAVC*GKPK [1C, fructated (Heyns) tryptic peptide HP A77-K93, glycation site K81]
retention time ([3]; Jupiter C18 (5 µm, 300 Å), 0.1% TFA, 5 to 60% eluent A2 in 55 min (0.6% acetonitrile/min), 0.2 mL/min, performed twice, deviations ~0.2 min): 27.6 min | acetonitrile content at elution ([3]; Jupiter C18, 0.1% TFA, 0.6% acetonitrile/min): ~ 13%

EQLKHeyAVMDDFAAFVEK [7C, fructated (Heyns) tryptic peptide HSA E542-K557, K545]
retention time (tr) [4]: 59.5 min | retention time (tr), mannosyl-lysine species [4]: 60.2 min

ADLAKAmaYIC*ENQDSISSK [2B, glucated (Amadori) tryptic peptide HSA A258-K274, K262]
retention time (tr) [1]: 38.0 min | retention time (tr) [2]: 32.9 min

TC*VADESAENC*DKHeySLHTLFGDK [3C, fructated (Heyns) tryptic peptide HSA T52-K73, K64]
retention time ([2]; new Synergi Fusion RP column, 58-min gradient 3 to 38% acetonitrile (eluent B3, 0.6%/min)): 26.2 min

EQLKAmaAVMDDFAAFVEK [7B, glucated (Amadori) tryptic peptide HSA E542-K557, K545]
retention time (tr) [4]: 59.5 min

AEFAEVSKAmaLVTDLTK [6B, glucated (Amadori) tryptic peptide HSA A226-K240, K233]
retention time (tr) [5]: 45.3 min | retention time (tr) [4]: 56.0 min | retention time [3, 6]: 52.2 min

AEFAEVSKHeyLVTDLTK [6C, fructated (Heyns) tryptic peptide HSA A226-K240, K233]
retention time (tr) [5]: 43.4 min | retention time (tr) [4]: 55.7 min | retention time (tr), mannosyl-lysine species [4]: 56.3 min | retention time [3, 6]: 51.9 min
